Data as given in patent US9474759B2 (priority 2011, dated 2016).
Where two headings read alike, the source gives them in different places.

Tests used:
HG23 cells = settings: human
FIPV-1146 = FIPV-1146 replication in CRFK cells, TCID50 method; format: cell-based, feline coronavirus; settings: Alphacoronavirus 1, MOI 0.05, mean ± SEM
Method: Crandell Rees feline kidney (CRFK) cells were maintained in minimal essential medium containing 2-5% fetal bovine serum and antibiotics (chlortetracycline [25 μg/ml], penicillin [250 U/ml], and streptomycin [250 μg/ml]). FIPV WSU 79-1146 and FECV WSU 79-1683 strains are the prototypes of serotype II FIPV or FECV, respectively, and were purchased from ATCC (Manassas, Va.).
The cells were further incubated in the presence of each compound for 1 hr at 37° C. Then […] or FECV-1683 was inoculated to the cells at a multiplicity of infection (MOI) of 0.05 or 5.
b. TCID50 Method. A standard TCID50 method with the 10-fold dilution of each sample was used for virus titration.

[1] = biological target: PV 3Cpro (codon-optimized, N-terminal 6 His, recombinant) (Poliovirus type 1, UniProt P03300); experiment: biochemical; parameters: species or system poliovirus (poliomyelitis virus)
Chain of PV 3Cpro (codon-optimized, N-terminal 6 His, recombinant) (P03300 1566-1748 limits assumed): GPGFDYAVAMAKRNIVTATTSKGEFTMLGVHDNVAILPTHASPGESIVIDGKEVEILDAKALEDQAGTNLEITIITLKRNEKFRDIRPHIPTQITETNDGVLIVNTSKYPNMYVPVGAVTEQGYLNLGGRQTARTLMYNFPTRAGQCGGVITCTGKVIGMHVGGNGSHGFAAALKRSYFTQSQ

FCV [2] = experiment: Cell culture system, FCV replication in CRFK cells (Example 3); format: cell-based, feline calicivirus; settings: Feline calicivirus; cell-based assay, CRFK cells; read-out: IC50 against FCV replication
[3] = biological target: NV 3CLpro (codon-optimized, full-length, N-terminal 6 His, recombinant) (Norovirus, UniProt Q83883); format: biochemical, Norwalk virus (human norovirus GI)
Chain of NV 3CLpro (codon-optimized, full-length, N-terminal 6 His, recombinant) (Q83883 1101-1281): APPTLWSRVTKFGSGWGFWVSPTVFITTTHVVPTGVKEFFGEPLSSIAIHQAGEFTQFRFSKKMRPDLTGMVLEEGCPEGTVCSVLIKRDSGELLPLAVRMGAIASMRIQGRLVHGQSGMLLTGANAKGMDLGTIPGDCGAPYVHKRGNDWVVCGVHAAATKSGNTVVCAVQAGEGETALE

229E = experiment: Cell-based screening, 229E in MRC-5 cells (Example 2); settings: Human coronavirus 229E, MRC5; MRC-5 cells; read-out: Inhibition [ED50 (μM)] against various viruses: Coronavirus, 229E
Method: (§1) 3. Cell-based screening of inhibitor. The effects of each inhibitor on the viral replication were examined. The list of viruses and corresponding cell lines are listed above in Table 2. Briefly, confluent cells were inoculated with virus at a MOI of 5 or 0.05 for 1 hr, and medium was replaced with medium containing mock-medium or each compound (up to 100 μM). The virus infected cells were further incubated for up to 96 hrs, and the replication of virus was measured by TCID50 assay with the 10-fold dilution of each sample used for virus titration (Reed and Muench, 1938). In some viruses, the virus protein and genome expression levels were detected by Western blot analysis and real-time qRT-PCR, respectively, as described below. The IC50s of the compounds were calculated.

[4] = biological target: SARS-CoV 3CLpro (codon-optimized, N-terminal 6 His, recombinant) (Severe acute respiratory syndrome coronavirus, UniProt P0C6X7); experiment: biochemical
HAV 3Cpro = HAV 3Cpro (Human hepatitis A virus genotype IB, UniProt P08617); experiment: Optimized FRET protease assay, HAV 3Cpro (Example 3); format: biochemical
Chain of HAV 3Cpro (P08617 1520-1738): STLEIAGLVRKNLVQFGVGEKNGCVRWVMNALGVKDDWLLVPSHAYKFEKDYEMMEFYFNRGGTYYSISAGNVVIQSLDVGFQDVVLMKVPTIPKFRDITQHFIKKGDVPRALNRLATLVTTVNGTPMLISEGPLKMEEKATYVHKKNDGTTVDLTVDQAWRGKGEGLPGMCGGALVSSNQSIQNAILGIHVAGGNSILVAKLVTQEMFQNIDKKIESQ
Method: Fluorogenic substrates with Edans and Dabcyl as a donor and quencher pair were purchased from Bachem (coronavirus substrate) or synthesized by GenScript. The viral proteases and the corresponding fluorogenic substrates are listed in Table 5, along with their sources.
Stock solutions (10 mM) of the substrates and the compounds were prepared in dimethyl sulfoxide (DMSO) and diluted in assay buffer. The assay buffer comprised 20 mM HEPES buffer containing NaCl (0 mM for HAV 3Cpro and 200 mM for all other proteases), 0.4 mM EDTA, Glycerol (60% for NV and MD145 3CLpro and 30% for TGEV and 229E 3CLpro), and 6 mM (NV and MD145 3CLpro and HAV 3Cpro)_or 4 mM (all other proteases) dithiothreitol (DTT) at pH 6 (coronavirus 3CLpro) or 8 (all other proteases). Each protease was mixed with serial dilutions of each compound or with DMSO in 25 μl of assay buffer and incubated at 37° C. for 30 min, followed by the addition of 25 μl of assay buffer containing substrate. Fluorescence readings were obtained using an excitation wavelength of 360 nm and an emission wavelength of 460 nm on a fluorescence microplate reader (FLx800; Biotek, Winooski, Vt.) at 1 h following the addition of substrate. The relative fluorescence units (RFU) were determined by subtracting background values (substrate-containing well without protease) from the raw fluorescence values. […]

[5] = biological target: Norwalk virus 3CL protease (NV3CL protease), recombinant (Norovirus, UniProt Q83883); experiment: Recombinant NV protease FRET inhibition assay (Edans-[…]-Dabcyl substrate), FIG. 4; format: biochemical; settings: 2.5 μM enzyme, 300 nM Edans-EPDFHLQGPEDLAK-Dabcyl, 30 min incubation, 30° C., pH 8.0
Chain of Norwalk virus 3CL protease (NV3CL protease), recombinant (Q83883 1101-1281): as the sequence (Q83883 1101-1281) above
Method: After a 30 minute incubation period, 5 μL of 12 μM Edans-[…]-Dabcyl (SEQ ID NO:1) substrate in DMSO was then added and the increase in fluorescence was monitored for 30 minutes at an excitation and emission wavelength of 360 and 460 nm, respectively. Using a HORIBA FluoroMax 4 spectrofluorometer. Hydrolysis curves were linear. The final enzyme and substrate concentrations were 2.5 μM and 300 nM, respectively. […] Furthermore, the nature of the cap was also important (compare, for example, inhibitors A and D).

Teschovirus = experiment: organism not typed; format: cell-based, porcine teschovirus; settings: read-out: Inhibition [ED50 (μM)] against various viruses: Picornavirus, Teschovirus
HAV [6] = experiment: Cell culture system, HAV replication in FRhK-4 cells (Example 3); format: cell-based, hepatitis A virus
MNV-1 = experiment: Cell-based screening, MNV-1 in RAW267.4 cells (Example 2); parameters: species or system murine norovirus; settings: Norwalk virus; RAW267.4 cells; read-out: Inhibition [ED50 (μM)] against various viruses: Calicivirus, MNV-1
Method: as §1

FIPV = experiment: Cell-based screening, FIPV in CRFK cells (Example 2); parameters: species or system feline infectious peritonitis virus; settings: Alphacoronavirus 1; CRFK cells; read-out: Inhibition [ED50 (μM)] against various viruses: Coronavirus, FIPV
Method: as §1

FCV [7] = experiment: Cell-based screening, FCV in CRFK cells (Example 2); settings: Feline calicivirus; CRFK cells; read-out: Inhibition [ED50 (μM)] against various viruses: Calicivirus, FCV
Method: as §1

[8] = system: 3CLpro of NV, MD145, MNV-1; format: biochemical, norovirus; settings: optimized FRET-based protease assay
HAV [9] = experiment: Cell-based screening, HAV (Example 2); parameters: species or system hepatitis A virus; settings: Picornaviridae; read-out: Inhibition [ED50 (μM)] against various viruses: Picornavirus, HAV
Method: as §1

CC(C)C[C@H](NC(=O)OCc1ccccc1)C(=O)N[C@H](C=O)C[C@@H]1CCNC1=O [GC373]
TD50, median toxic dose (HG23 cells): > 320 µM | EC50 (FIPV-1146; 24 hr post infection, read-out: Inhibition [ED50 (μM)] against FIPV-1146, 24 hrs): 0.07 ± 0.04 µM | EC50 (FIPV-1146; 48 hr post infection, read-out: Inhibition [ED50 (μM)] against FIPV-1146, 48 hrs): 0.43 ± 0.35 µM | IC50 [1]: 2020 ± 1560 nM | IC50 (FCV [2]): 65000 nM | IC50 [3]: 640 nM | EC50 (229E): 0.2 µM | IC50 [4]: 3480 ± 1590 nM | inhibitory effect on HAV 3Cpro (in words) (HAV 3Cpro): all viral proteases except HAV 3Cpro | IC50 [5]: 1820 nM | EC50 (Teschovirus): 0.15 µM | effectiveness against the replication of HAV in cells (in words) (HAV [6]): no or weak effectiveness | EC50 (MNV-1): 6.5 µM | EC50 (FIPV): 0.3 µM | EC50 (FCV [7]): 65 µM | effect on the activity of 3CLpro of NV, MD145, MNV-1 (in words) [8]: highly effective | EC50 (HAV [9]): > 100 µM
